Experimental data reported in patent publication US8440654B2, “Thieno- and furo-pyrimidine modulators of the histamine H4 receptor” (Janssen Pharmaceutica NV, priority 2007, dated 2013).
Structures can show the parent of a compound that is named as a salt.

Molecular target: T1, human histamine H4 receptor (Homo sapiens, UniProt Q9H3N8)
T1 construct: expressed in transfected cells; host or cells: SK-N-MC cells or COS7 cells, transiently transfected with pH4R; membrane preparation
Assay: Binding Assay on Recombinant Human Histamine H4 Receptor
Details: competition binding with 3H-histamine, membranes of SK-N-MC or COS7 cells transfected with human H4R; average of results obtained
Description: Biological Methods: Binding Assay on Recombinant Human Histamine H4 Receptor.
SK-N-MC cells or COS7 cells were transiently transfected with pH4R and grown in 150 cm^2 tissue culture dishes. Cells were washed with saline solution, scraped with a cell scraper and collected by centrifugation (1000 rpm, 5 min). Cell membranes were prepared by homogenization of the cell pellet in 20 mM Tris-HCl with a polytron tissue homogenizer for 10 sec at high speed. Homogenate was centrifuged at 1000 rpm for 5 min at 4° C. The supernatant was then collected and centrifuged at 20,000×g for 25 min at 4° C. The final pellet was resuspended in 50 mM Tris-HCl. Cell membranes were incubated with ^3H-histamine (5-70 nM) in the presence or absence of excess histamine (10,000 nM). Incubation occurred at room temperature for 45 min. Membranes were harvested by rapid filtration over Whatman GF/C filters and washed 4 times with ice-cold 50 mM Tris HCl. Filters were then dried, mixed with scintillant and counted for radioactivity. SK-N-MC or COS7 cells expressing human histamine H4 receptor were used to measure the affinity of binding of other compounds and their ability to displace ^3H-ligand binding by incubating the above-described reaction in the presence of various concentrations of inhibitor or compound to be tested. For competition binding studies using ^3H-histamine, K values were calculated, based on an experimentally determined KD value of 5 nM and a ligand concentration of 5 nM, according to Y.-C.

T1 sequence (Q9H3N8 whole entry): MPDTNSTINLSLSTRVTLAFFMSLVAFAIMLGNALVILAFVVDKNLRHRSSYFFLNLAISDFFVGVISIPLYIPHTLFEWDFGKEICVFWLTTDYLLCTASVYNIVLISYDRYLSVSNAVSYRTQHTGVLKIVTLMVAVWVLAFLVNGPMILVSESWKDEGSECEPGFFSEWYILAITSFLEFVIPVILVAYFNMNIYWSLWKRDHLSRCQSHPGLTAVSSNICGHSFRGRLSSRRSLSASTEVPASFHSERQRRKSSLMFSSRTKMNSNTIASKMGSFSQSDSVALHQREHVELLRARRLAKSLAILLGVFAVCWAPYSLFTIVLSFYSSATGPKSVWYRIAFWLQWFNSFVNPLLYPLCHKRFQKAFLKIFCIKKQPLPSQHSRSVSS

Row | SMILES | Ki [nM]
1 | CN(C)[C@@H]1CCN(c2nc(N)nc3c4c(sc23)CCCC4)C1 [Example 39, 4-[(3R)-3-(Dimethyl-amino)pyrrolidin-1-yl]-6,7,8,9-tetrahydro[1]benzo-thieno[3,2-d]pyrimidin-2-amine trifluoroacetic acid salt] | 62
2 | NC[C@H]1CCN(c2nc(N)nc3c4c(sc23)CCCC4)C1 [Example 41, 4-[(3R)-3-(Amino-methyl)pyrrolidin-1-yl]-6,7,8,9-tetrahydro[1]benzo-thieno[3,2-d]pyrimidin-2-amine trifluoroacetic acid salt] | 1010
3 | Nc1nc(N2CC(N)C2)c2sc3c(c2n1)CCCC3 [Example 42, 4-(3-Aminoazetidin-1-yl)-6,7,8,9-tetrahydro[1]benzo-thieno[3,2-d]pyrimidin-2-amine trifluoroacetic acid salt] | 467
4 | CC1CCc2sc3c(N4CCN(C)CC4)nc(N)nc3c2C1 (stereo not shown) [Example 43, 8-Methyl-4-(4-methyl-piperazin-1-yl)-6,7,8,9-tetrahydro[1]benzo-thieno[3,2-d]pyrimidin-2-amine trifluoroacetic acid salt] | 7
5 | CN[C@H]1CCN(c2nc(N)nc3c4c(sc23)CCC(C)C4)C1 (stereo partly drawn) [Example 44, 8-Methyl-4-[(3R)-3-(methyl-amino)pyrrolidin-1-yl]-6,7,8,9-tetrahydro[1]benzo-thieno[3,2-d]pyrimidin-2-amine trifluoroacetic acid salt] | 11
6 | CC1CCc2sc3c(N4C[C@H]5CCCN[C@H]5C4)nc(N)nc3c2C1 (stereo partly drawn) [Example 45, 8-Methyl-4-[(4aR,7aR)-octa-hydro-6H-pyrrolo-[3,4-b]pyridin-6-yl]-6,7,8,9-tetra-hydro[1]benzothieno[3,2-d]pyrimidin-2-amine trifluoroacetic acid salt] | 4
7 | CN1CCN(c2nc(N)nc3c4c(sc23)CCCCC4)CC1 [Example 46, 4-(4-Methylpiperazin-1-yl)-7,8,9,10-tetrahydro-6H-cyclohepta[4,5]thieno[3,2-d]pyrimidin-2-amine tri-fluoroacetic acid salt] | 21
8 | Nc1nc(N2C[C@H]3CCCN[C@H]3C2)c2sc3c(c2n1)CCCCC3 [Example 48, 4-[(4aR,7aR)-Octahydro-6H-pyrrolo[3,4-b]pyridin-6-yl]-7,8,9,10-tetrahydro-6H-cyclohepta[4,5-d]pyrimidin-2-amine trifluoroacetic acid salt] | 3
9 | NCCN1CCN(c2nc(N)nc3c4c(sc23)CCCC4)CC1 [Example 49, 4-[4-(2-Aminoethyl)piper-azin-1-yl]-6,7,8,9-tetrahy-dro[1]benzothieno[3,2-d]pyrimidin-2-amine tri-fluoroacetic acid salt] | 2260
10 | CC(C)N1CCN(c2nc(N)nc3c4c(sc23)CCCC4)CC1 [Example 50, 4-[4-(1-Methylethyl)piper-azin-1-yl]-6,7,8,9-tetrahy-dro[1]benzothieno[3,2-d]pyrimidin-2-amine trifluoroacetic acid salt] | 647
11 | CCN1CCN(c2nc(N)nc3c4c(sc23)CCCC4)CC1 [Example 51, 4-(4-Ethylpiperazin-1-yl)-6,7,8,9-tetrahydro[1]benzo-thieno[3,2-d]pyrimidin-2-amine trifluoroacetic acid salt] | 205
12 | Nc1nc(N2CCN3CCCC3C2)c2sc3c(c2n1)CCCC3 (stereo not shown) [Example 52, 4-(Hexahydropyrrolo[1,2-a]pyrazin-2(1H)-yl-6,7,8,9-tetrahydro[1]benzothieno[3,2-d]pyrimidin-2-aminetrifluoroacetic acid salt] | 67
13 | Nc1nc(N2CCN3CCCCC3C2)c2sc3c(c2n1)CCCC3 (stereo not shown) [Example 53, 4-(Octahydro-2H-pyrido[1,2-a]pyrazin-2-yl)-6,7,8,9-tetrahydro[1]benzothieno-3,2-d]pyrimidin-2-amine trifluoroacetic acid salt] | 387
14 | Nc1nc(N2CCn3cnnc3C2)c2sc3c(c2n1)CCCC3 [Example 54, 4-(5,6-Dihydro[1,2,4-a]pyrazin-7(8H)-yl)-6,7,8,9-tetrahydro[1]benzothieno[3,2-d]pyrimidin-2-amine trifluoroacetic acid salt] | 1610
15 | CN[C@H]1CCN(c2nc(N)nc3c4c(sc23)CCCC4)C1 [Example 55, 4-[(3S)-3-(Methyl-amino)pyrrolidin-1-yl]-6,7,8,9-tetrahydro[1]benzo-thieno[3,2-d]pyrimidin-2-amine trifluoroacetic acid salt] | 33
16 | CN1CCN(c2nc(N)nc3c4c(sc23)CCC(F)(F)C4)CC1 [Example 57, 8,8-Difluoro-4-(4-methyl-piperazin-1-yl)-6,7,8,9-tetrahydro[1]benzothieno[3,2-d]pyrimidin-2-amine trifluoroacetic acid salt] | 23

Row | SMILES | Ki [nM]
17 | Nc1nc(N2CCNCC2)c2sc3c(c2n1)CC(F)(F)CC3 [Example 58, 8,8-Difluoro-4-piperazin-1-yl-6,7,8,9-tetrahydro[1]ben-zothieno[3,2-d]pyrimidin-2-amine trifluoroacetic acid salt] | 14
18 | CN[C@@H]1CCN(c2nc(N)nc3c4c(sc23)CCC(F)(F)C4)C1 [Example 59, 8,8-Difluoro-4-[(3R)-3-(methylamino)pyrrolidin-1-yl]-6,7,8,9-tetrahydro[1]benzothieno[3,2-d]pyrimidin-2-amine trifluoroacetic acid salt] | 9
19 | CN[C@H]1CCN(c2nc(N)nc3c4c(sc23)CCC(F)(F)C4)C1 [Example 112, 8,8-Difluoro-4-[(3S)-3-(methylamino)pyrrolidin-1-yl]-6,7,8,9-tetrahydro[1]benzothieno[3,2-d]pyrimidin-2-amine trifluoroacetate] | 6
20 | Nc1nc(N2CC[C@@H](N)C2)c2sc3c(c2n1)CC(F)(F)CC3 [Example 113, 4-[(3R)-3-Aminopyrrolidin-1-yl]-8,8-difluoro-6,7,8,9-tetrahydro[1]benzothieno[3,2-d]pyrimidin-2-amine hydrochloride] | 1.1
21 | Nc1nc(N2CCCNCC2)c2sc3c(c2n1)CC(F)(F)CC3 [Example 114, 4-(1,4-Diazepan-1-yl)-8,8-difluoro-6,7,8,9-tetrahydro[1]benzothieno[3,2-d]pyrimidin-2-amine trifluoroacetate] | 2.1
22 | CN(CCN)c1nc(N)nc2c3c(sc12)CCC(F)(F)C3 [Example 115, N^4-(2-Aminoethyl)-8,8-difluoro-N^4-methyl-6,7,8,9-tetrahydro[1]benzothieno[3,2-d]pyrimidine-2,4-diamine trifluoroacetate] | 21
23 | CN[C@@H]1CCN(c2nc(N)nc3c4c(oc23)CCC(F)(F)C4)C1 [Example 116, 8,8-Difluoro-4-[(3R)-3-(methylamino)pyrrolidin-1-yl]-6,7,8,9-tetrahydro[1]benzofuro[3,2-d]pyrimidin-2-amine hydrochloride] | 0.48
24 | Nc1nc(N2CC[C@@H](N)C2)c2oc3c(c2n1)CC(F)(F)CC3 [Example 117, 4-[(3R)-3-Aminopyrrolidin-1-yl]-8,8-difluoro-6,7,8,9-tetrahydro[1]benzofuro[3,2-d]pyrimidin-2-amine hydrochloride] | 6.8
25 | Nc1nc(N2CCNCC2)c2oc3c(c2n1)CC(F)(F)CC3 [Example 118, 8,8-Difluoro-4-piperazin-1-yl-6,7,8,9-tetrahydro[1]benzofuro[3,2-d]pyrimidin-2-amine hydrochloride] | 29
26 | Nc1nc(N2CC[C@H](N)C2)c2sc3c(c2n1)CC(F)(F)CC3 [Example 119, 4-[(3S)-3-Aminopyrrolidin-1-yl]-8,8-difluoro-6,7,8,9-tetrahydro[1]benzothieno[3,2-d]pyrimidin-2-amine hydrochloride] | 21
27 | Nc1nc(N2CC(N)C2)c2sc3c(c2n1)CC(F)(F)CC3 [Example 120, 4-(3-Aminoazetidin-1-yl)-8,8-difluoro-6,7,8,9-tetrahydro[1]benzothieno[3,2-d]pyrimidin-2-amine (free amine)] | 170
28 | CN1C[C@@H]2CN(c3nc(N)nc4c5c(sc34)CCC(F)(F)C5)C[C@@H]2C1 [Example 121, 8,8-Difluoro-4-[(3aR,6aS)-5-methylhexahydropyrrolo[3,4-c]pyrrol-2(1H)-yl]-6,7,8,9-tetrahydro[1]benzothieno[3,2-d]pyrimidin-2-amine (free amine)] | 150
29 | CN[C@H]1CCN(c2nc(N)nc3c4c(oc23)CCC(F)(F)C4)C1 [Example 122, 8,8-Difluoro-4-[(3S)-3-(methylamino)pyrrolidin-1-yl]-6,7,8,9-tetrahydro[1]benzofuro[3,2-d]pyrimidin-2-amine trifluoroacetate] | 7
30 | CN1CCN(c2nc(N)nc3c4c(oc23)CCC(F)(F)C4)CC1 [Example 123, 8,8-Difluoro-4-(4-methylpiperazin-1-yl)-6,7,8,9-tetrahydro[1]benzofuro[3,2-d]pyrimidin-2-amine trifluoroacetate] | 15
31 | Nc1nc(N2C[C@H]3CCCN[C@H]3C2)c2oc3c(c2n1)CC(F)(F)CC3 [Example 124, 4-((R,R)-octahydropyrrolo[3,4-b]pyridin-6-yl)-8,8-difluoro-6,7,8,9-tetrahydro[1]benzofuro[3,2-d]pyrimidin-2-amine trifluoroacetate] | 33
